Experimental data reported in ChEMBL document CHEMBL1201862, “PubChem BioAssay data set” (2004).
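48-hour exposure; five concentrations; linearly interpolated endpoints. The concentration for 50% growth inhibition is given as GI50.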 Activity calls are given as the source filed them. Cut-off read from the data, not from the text of the source: active = GI50 up to about 1.1 µM and inactive = higher.

Key:
Test in all cases: NCI-60 cell line screen, 48 h
SK-MEL-5 = system: SK-MEL-5
Malme-3M = system: Malme-3M
SN12C = system: SN12C
SF-295 = system: SF-295
M19-MEL = system: M19-MEL
HL-60 = system: HL-60
TK-10 = system: TK-10
HCC 2998 = system: HCC 2998
KM12 = system: KM12
OVCAR-4 = system: OVCAR-4
SK-MEL-28 = system: SK-MEL-28
NCI-H522 = system: NCI-H522
NCI-H23 = system: NCI-H23
HOP-62 = system: HOP-62
IGROV-1 = system: IGROV-1
HOP-18 = system: HOP-18
NCI-H460 = system: NCI-H460
RPMI-8226 = system: RPMI-8226
SF-268 = system: SF-268
OVCAR-8 = system: OVCAR-8
RXF 631 = system: RXF 631
DLD-1 = system: DLD-1
OVCAR-5 = system: OVCAR-5
SF-539 = system: SF-539
HCT-15 = system: HCT-15
SNB-75 = system: SNB-75
M14 = system: M14
DMS-273 = system: DMS-273
DMS-114 = system: DMS-114
UACC-257 = system: UACC-257
K562 = system: K562
U-251 = system: U-251
UACC-62 = system: UACC-62
HOP-92 = system: HOP-92
MOLT-4 = system: MOLT-4
786-0 = system: 786-0
XF498 = system: XF498
LOX IMVI = system: LOX IMVI
ACHN = system: ACHN
LXFL 529 = system: LXFL 529
CAKI-1 = system: CAKI-1
SK-MEL-2 = system: SK-MEL-2
A549 = system: A549
HT-29 = system: HT-29
RXF 393 = system: RXF 393
SK-OV-3 = system: SK-OV-3
EKVX = system: EKVX
HCT-116 = system: HCT-116
SW-620 = system: SW-620
SNB-78 = system: SNB-78
UO-31 = system: UO-31
A498 = system: A498
CCRF-CEM = system: CCRF-CEM
SNB-19 = system: SNB-19
KM-20L2 = system: KM-20L2
SR = system: SR
NCI-H226 = system: NCI-H226
OVCAR-3 = system: OVCAR-3
COLO 205 = system: COLO 205

Measured: GI50

CCCCCCCCCCNC(=S)OCCCC
19.2 µM: HCT-15
inactive: SK-MEL-5 18 µM | Malme-3M 27.7 µM | SN12C 19.7 µM | SF-295 45.4 µM | M19-MEL 35.3 µM | HL-60 14.3 µM | TK-10 14.7 µM | HCC 2998 24.6 µM | KM12 14.7 µM | OVCAR-4 34 µM | SK-MEL-28 25.8 µM | NCI-H522 18.6 µM | NCI-H23 23.1 µM | HOP-62 27.2 µM | IGROV-1 28.1 µM | HOP-18 26.9 µM | NCI-H460 21.9 µM | RPMI-8226 17.1 µM | SF-268 22.8 µM | OVCAR-8 33.3 µM | RXF 631 26.4 µM | DLD-1 27.2 µM | OVCAR-5 11.3 µM | SF-539 21.7 µM | SNB-75 36.5 µM | M14 23.6 µM | DMS-273 20.3 µM | DMS-114 22.9 µM | UACC-257 23.4 µM | K562 18.5 µM | U-251 19.5 µM | UACC-62 22.5 µM | HOP-92 16.7 µM | MOLT-4 14.7 µM | 786-0 29.1 µM | XF498 20.1 µM | LOX IMVI 15.9 µM | ACHN 28.1 µM | LXFL 529 22.9 µM | CAKI-1 25.8 µM | SK-MEL-2 12.8 µM | A549 26 µM | HT-29 19.5 µM | RXF 393 34.9 µM | SK-OV-3 30 µM | EKVX 25.8 µM | HCT-116 18.3 µM | SW-620 19.2 µM | SNB-78 35.3 µM | UO-31 23.5 µM | A498 25.6 µM | CCRF-CEM 17.1 µM | SNB-19 46.8 µM | KM-20L2 19.1 µM | SR 17.4 µM

Nc1cccc(S(=O)(=O)NCC(=O)O)c1
> 100 µM: HCT-15
inactive: SK-MEL-5 > 100 µM | Malme-3M > 100 µM | SN12C > 100 µM | SF-295 > 100 µM | M19-MEL > 100 µM | TK-10 > 100 µM | HCC 2998 > 100 µM | KM12 > 100 µM | OVCAR-4 > 100 µM | SK-MEL-28 > 100 µM | NCI-H522 > 100 µM | NCI-H23 > 100 µM | HOP-62 > 100 µM | IGROV-1 > 100 µM | HOP-18 > 100 µM | NCI-H460 > 100 µM | RPMI-8226 > 100 µM | SF-268 > 100 µM | OVCAR-8 > 100 µM | RXF 631 > 100 µM | DLD-1 > 100 µM | OVCAR-5 > 100 µM | SF-539 > 100 µM | NCI-H226 > 100 µM | SNB-75 > 100 µM | M14 > 100 µM | DMS-273 > 100 µM | DMS-114 > 100 µM | UACC-257 > 100 µM | K562 > 100 µM | U-251 > 100 µM | UACC-62 > 100 µM | MOLT-4 > 100 µM | 786-0 > 100 µM | XF498 > 100 µM | LOX IMVI > 100 µM | OVCAR-3 > 100 µM | ACHN > 100 µM | LXFL 529 > 100 µM | CAKI-1 > 100 µM | SK-MEL-2 > 100 µM | A549 > 100 µM | HT-29 > 100 µM | RXF 393 > 100 µM | SK-OV-3 > 100 µM | EKVX > 100 µM | HCT-116 > 100 µM | SW-620 > 100 µM | SNB-78 > 100 µM | UO-31 73.5 µM | CCRF-CEM > 100 µM | COLO 205 > 100 µM | SNB-19 > 100 µM | KM-20L2 > 100 µM
